Test results taken from the supplement of paper PMC10307832.

Columns and labels:
Assay in all cases: relative viability (nuclei count vs DMSO), 5 days (fraction); higher = more cells survive
[1] = compound: c1ccc2c(CCNc3ccc(Nc4ccncc4)cc3)c[nH]c2c1 [Serdemetan] + O=C(CCCCCCC(=O)Nc1ccccc1)NO [Vorinostat] (partner 1 µM)
Outline: (§1)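 Lung cancer cell lines were pin-tool dosed in 1536-well plates on the day after seeding, with either a lone drug or a fixed anchor-drug dose plus five library-drug doses (not always all listed) in √10 steps. Nuclei were counted on 4× images after 5 days. Relative viability is the ratio of treated-well to vehicle-well nuclei counts, with each value a median of duplicate plates.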

[2] = compound: C1CC(C2=C(C1)C3=C(N2)C=CC(=C3)Cl)C(=O)N [Selisistat] + C[C@@H](Oc1cc(-c2cnn(C3CCNCC3)c2)cnc1N)c1c(Cl)ccc(F)c1Cl [Crizotinib] (partner 1 µM)
Outline: as §1

[3] = compound: C1CC(C2=C(C1)C3=C(N2)C=CC(=C3)Cl)C(=O)N [Selisistat] + CC(=O)c1c(C)c2cnc(Nc3ccc(N4CCNCC4)cn3)nc2n(C2CCCC2)c1=O [Palbociclib] (partner 0.5 µM)
Outline: as §1

[4] = compound: c1ccc2c(CCNc3ccc(Nc4ccncc4)cc3)c[nH]c2c1 [Serdemetan] + CC(C)C[C@H](NC(=O)[C@H](Cc1ccccc1)NC(=O)c1cnccn1)B(O)O [Bortezomib] (partner 0.002 µM)
Outline: as §1

Cell Line | relative viability ([1]; first compound 0.04 µM) | relative viability ([1]; first compound 0.1265 µM) | relative viability ([1]; first compound 0.4 µM) | relative viability ([1]; first compound 1.265 µM) | relative viability ([1]; first compound 4 µM) | relative viability ([2]; first compound 0.4 µM) | relative viability ([2]; first compound 1.265 µM) | relative viability ([2]; first compound 4 µM) | relative viability ([2]; first compound 12.65 µM) | relative viability ([2]; first compound 40 µM) | relative viability ([3]; first compound 0.4 µM) | relative viability ([3]; first compound 1.265 µM) | relative viability ([3]; first compound 4 µM) | relative viability ([3]; first compound 12.65 µM) | relative viability ([3]; first compound 40 µM) | relative viability ([4]; first compound 0.04 µM) | relative viability ([4]; first compound 0.1265 µM) | relative viability ([4]; first compound 0.4 µM) | relative viability ([4]; first compound 1.265 µM) | relative viability ([4]; first compound 4 µM)
RERF-LC-KJ | 0.687 | 0.611 | 0.609 | 0.71 | 0.654 | 0.826 | 0.879 | 0.835 | 0.771 | 0.716 | 1.15 | 1.02 | 0.995 | 0.909 | 0.952 | 1.19 | 1.16 | 1.06 | 1.03 | 0.797
SK-LU-1 | 0.746 | 0.821 | 0.746 | 0.598 | 0.451 | 1.02 | 0.987 | 1.1 | 1.01 | 1.09 | 0.394 | 0.361 | 0.367 | 0.43 | 0.411 | 1.15 | 0.921 | 1.24 | 1.1 | 0.988
SW 1573 | 0.662 | 0.932 | 0.974 | 0.615 | 0.208 | 0.841 | 0.791 | 0.8 | 0.922 | 0.751 | 0.353 | 0.366 | – | 0.371 | 0.388 | 0.931 | 1.01 | 0.892 | 0.308 | 0.242
